Assay results as given in patent US11058652B2, “Methods for treatment of Prader-Willi syndrome” (Yissum Research Development Company of the Hebrew …, priority 2016, dated 2021).

System: Magel2-null mice
Test: Effect of HU-671 on preventing bone loss in female Magel2 mice (μCT of distal femoral metaphysis)
Type: in vivo
Settings: 0.5 mg/kg IP daily for 6 weeks
Procedure: The effect of HU-671 on preventing bone loss in female Magel2 mice and their littermates as controls was tested. Forty (40) 6-week old female mice were treated daily with HU-671 (0.5 mg/kg, IP) for a period of 6 weeks. Twenty-four (24) hours following the last administration of HU-671, a complete structural analysis of the trabecular and cortical bone in the distal femoral metaphysis was performed. The femora were fixed in phosphate buffered formalin for 48 hours and further kept at 70% ethanol. They were examined by a micro computed tomography (μCT) system. Scans were performed at 20-μm resolution in all three spatial dimensions. The mineralized tissues were differentially segmented by a global thresholding procedure.

CCCCCCCC/C=C\CCCCCCCC(=O)NC(C)(CO)C(=O)O (racemic) [HU-671, N-oleoyl α-methyl-DL-serine]
Tb.N (trabecular number): increasing | Tb.Th (trabecular thickness): enhancing | bone volume density (BV/TV): stimulated increase | connectivity density in the trabecular bone (Conn.D): significantly rescued | cortical parameters: improved | reduction in Cort.Th (cortical thickness): completely prevent | trabecular bone loss (vs vehicle-treated): completely prevented
